Patent publication US20050124554A1, “Spermidine derivatives for the treatment of chronic neurodegenerative diseases” (priority 2002, published 2005)
“And” between values parts separate entries of the source, which are not always exact repeats. Equal values may be shown once.

What was measured:
[1] = test system: superoxide production in organotypic slice cultures (CA1 pyramidal cell layer); experiment: Superoxide production monitored fluorescently with hydroethidine (HEt); format: cell-based, Wistar rat; details: 10 μM AMPA alone
Method: Hydroethidine (HEt) has been utilised to fluorescently monitor the production of superoxide in primary neuronal cultures [Bindokas et al., (1996), Carriedo et al. (1998)]. A stock solution of HEt was made was made in N2 sparged DMSO (10 mg ml^−1) which was then aliquoted and stored at −80° C. aliquots were used only once before being discarded. Two separate experimental paradigms were employed to test the effect of L-Arg3,4 on superoxide production in response to either AMPA or NMDA stimulation.
For the AMA experiments, organotypic slice cultures were loaded with 1 μg ml^−1 HEt in HEPES buffered salt solution (HSS) (in mM): glucose 10, NaCl 144, KCl 5, HEPES 10, MgCl2 1, CaCl2 2, pH 7.4, for 30 minutes in the dark. All subsequent solutions contained HEt to prevent a decrease in signal due to reporter depletion. Images were acquired once per minute for the duration of the experiment on the same system as described above for assessment of cell death. A 10 minute record of baseline superoxide production was produced before the bathing solution was exchanged for HBSS+BEt containing 10 μM AMPA, again for 10 minutes. As shown previously, stimulation of glutamate receptors with AMPA lead to an increase in superoxide production [Bindokas et al., (1996), Carriedo et al. (1998)]. The bathing solution was then exchanged for HBSS+HEt containing both 10 μM AMPA and 300 μM L-Arg3,4 for 10 minutes to test the effect of L-Arg3,4 on superoxide production. In separate control experiments, 300 μM L-Arg3,4 in HSS was incubated with slices to determine if it affected baseline superoxide production on its own.
Acquired images from the AMPA experiments were then analysed with the OpenLab image analysis package. A region of interest was drawn around the CA1 pyramidal cell layer because this was the cell layer that produced the largest increase in fluorescence in response to AMPA activation. In each image, within the region of interest, the average pixel value was calculated in arbitrary units (AU) to produce a record of fluorescence intensity values over time. A linear regression was then performed on the data to calculate the rate of superoxide production as change in intensity over time (arbitrary units per minute, AU min^−1) for each of the treatments. Data is presented as mean±s.d. Rates of superoxide production were then compared by ANOVA followed by post-hoc comparisons with Bonferroni corrections with significance indicated as * for P<0.05 and ** for P<0.01.

models of excitotoxicity = details: Hartley & Choi 1989; cited from earlier work
[2] = test system: acute hippocampal slices (CA1 pyramidal cell layer, Schaffer collateral stimulation); experiment: Electrophysiology: evoked field responses / synaptic transmission; set-up: species or system Sprague-Dawley rats
Source text: All animal procedures to produce acute hippocampal slices were approved by the Home Office. Male, 250 g, Sprague-Dawley rats were deeply anaesthetised with halothane and decapitated. The brain was quickly removed, and the hippocampi dissected out and then cut into 300 μm thick transverse slices on a vibratome (Leica, Milton Keynes, UK) in cold cutting solution (in mM: 189 sucrose, 2.5 KCl, 26 NaHCO3, 1.2 NaH2PO4, 10 glucose, 5 MgCl2, 0.1 CaCl2) equilibrated with 5% CO2, 95% O2. Slices were transferred to aCSF (in mM: 10 glucose, 125 NaCl, 5 KCl, 26 NaHCO3, 1 MgCl2, 1.25 NaH2PO4, 2 CaCl2, 10 sucrose) at room temperature, bubbled with 5% CO2 and 95% O2, for at least 1 h before use.
Slices were then transferred to a submerged perfusion chamber (2 ml volume) for the electrophysiological recordings and were perfused at 10 ml min^−1 at 25° C. with aCSF equilibrated with 5% CO2 and 95% O2, and allowed to equilibrate for 1 h before manipulations were started. Experimental compounds were applied by bath perfusion. L-Arg3,4 was applied at 300 μM and DNQX was applied at 10 μM final concentration. DNQX was diluted from a 40 mM stock in DMSO (final DMSO of 0.025%). The Schaffer collaterals of CA3 were stimulated at voltages from 0 to 30 V with a constant voltage stimulator (Digitimer, Hertfordshire, UK) via a twisted pair stimulating electrode of polyimide coated stainless steel wire (Plastics One, Roanoke, Va.). Field potential responses were recorded with an Axopatch 200B amplifier (Axon Instruments, Foster City, Calif.) in the fast current clamp mode via a 2M KCl filled glass electrode (2-5 MQ) in the CA1 pyramidal cell layer. Responses were filtered at 2 kHz, digitised at 20 kHz with a Digidata 1320A (Axon Instruments), and stored onto hard disk with Clampex 8.1 software (Axon Instruments) running on a Dell Pentium III PC. Data was analysed in Clampfit 8.1 (Axon Instruments).
Stimulus-response (S/R) curves were generated from stimuli from 0 to 30 V in 2 V increments. Bath perfusion of 300 μM L-Arg3,4 in aCSF was applied for 10 min with a sub-maximal stimulus applied every minute to monitor synaptic transmission. A second S/R curve was generated before the perfusion was switched back to plain aCSF. A sub-maximal stimulus was applied every minute during the 15 min wash period after which a third SIR curve was generated. Perfusion of 10 μM DNQX was then started until the response to the sub-maximal stimulus was completely eliminated which always occurred within 10 min. […] In Clampfit, S/R curves were fit to a sigmoidal function of the form: [formula] where R is the magnitude of the evoked response, Rmax is the maximum response, V50 is the voltage which produces a half maximal response, S is the stimulus voltage, and m is proportional to the slope of the linear region of the sigmoid. Data was compared by one way ANOVA.

Cc1o[nH]c(=O)c1CC(N)C(=O)O (centres unmarked) [AMPA, reference compound]
increase of rate of superoxide production over baseline [1]: approximately 5 fold | rate of superoxide production [1]: 10.65±3.70 AU min-1

N[C@H](CCCP(=O)(O)O)C(=O)O [D-APV]
delay of administration at which effectiveness is lost (therapeutic window) (models of excitotoxicity): 30 min

O=c1[nH]c2cc([N+](=O)[O-])c([N+](=O)[O-])cc2[nH]c1=O [DNQX, 6,7-Dinitroquinoxaline-2,3(1H,4H)-dione, reference compound]
time to complete elimination of response / synaptic transmission ([2]; 10 μM, all slices): ≤ 10 min | time to elimination of all transmission ([2]; 10 μM, single slice, sub-maximal stimulus): ≤ 5 min | effect on evoked responses ([2]; bath application, L-Arg3,4 300 μM, DNQX 10 μM): blocked the evoked response completely

C[C@]12N[C@H](Cc3ccccc31)c1ccccc12 [MK-801]
delay of administration at which effectiveness is lost (therapeutic window) (models of excitotoxicity): 30 min and 15 min

COc1ccc2c(c1)[C@]13CCCC[C@@H]1[C@H](C2)N(C)CC3 [dextromethorphan]
delay of administration at which effectiveness is lost (therapeutic window) (models of excitotoxicity): 30 min
